Reference: patent US9399904B2, “Oil recovery system and method” (SHELL OIL COMPANY, priority 2013, dated 2016)

Assay: Dynamic viscosity of crude/dimethyl sulfide blends, closed cup rheometer
Assay type: physicochemical
Experimental: The quality of dimethyl sulfide as an oil recovery agent based on the crude oil viscosity lowering properties of dimethyl sulfide was evaluated. Three crude oils having widely disparate viscosity characteristics—an African Waxy crude, a Middle Eastern asphaltic crude, and a Canadian asphaltic crude—were blended with dimethyl sulfide.
A control sample of each crude was prepared containing no dimethyl sulfide, and samples of each crude were prepared and blended with dimethyl sulfide to prepare crude samples containing increasing concentrations of dimethyl sulfide. The samples were heated to 60° C. to dissolve any waxes therein and to permit weighing of a homogeneous liquid. The samples were weighed, allowed to cool overnight, then blended with a selected quantity of dimethyl sulfide. The samples of the crude/dimethyl sulfide blend were then heated to 60° C. and mixed to ensure homogeneous blending of the dimethyl sulfide in the samples. Absolute (dynamic) viscosity measurements of each of the samples were taken using a closed cup rheometer using a PZ39 rotor sensor assembly in the rheometer. Viscosity measurements of each of the samples of the West African waxy crude and the Middle Eastern asphaltic crude were taken at 20° C., 40° C., 60° C., 80° C., and then again at 20° C. after cooling from 80° C., where the second measurement at 20° C. is taken to measure the viscosity without the presence of waxes since wax formation occurs slowly enough to permit viscosity measurement at 20° C. without the presence of wax. Viscosity measurements of each of the samples of the Canadian asphaltic crude were taken at 5° C., 10° C., 20° C., 40° C., 60° C., 80° C., The measured viscosities for each of the crudes are shown in Tables 4, 5, and 6 below.

Viscosity of West African Waxy Crude (1.21 wt. % DMS, 20° C.): 125.8 mPa s
Viscosity of West African Waxy Crude (1.21 wt. % DMS, 20° C. after cooling from 80° C.): 100.1 mPa s
Viscosity of West African Waxy Crude (1.21 wt. % DMS, 40° C.): 30.94 mPa s
Viscosity of West African Waxy Crude (1.21 wt. % DMS, 60° C.): 14.66 mPa s
Viscosity of West African Waxy Crude (1.21 wt. % DMS, 80° C.): 8.92 mPa s
Viscosity of Middle Eastern Asphaltic Crude (1.3 wt. % DMS, 20° C.): 1733.8 mPa s
Viscosity of Middle Eastern Asphaltic Crude (1.3 wt. % DMS, 20° C. after cooling from 80° C.): 1624.8 mPa s
Viscosity of Middle Eastern Asphaltic Crude (1.3 wt. % DMS, 40° C.): 334.5 mPa s
Viscosity of Middle Eastern Asphaltic Crude (1.3 wt. % DMS, 60° C.): 106.7 mPa s
Viscosity of Middle Eastern Asphaltic Crude (1.3 wt. % DMS, 80° C.): 44.6 mPa s
Viscosity of Topped Canadian Asphaltic Crude (1.43 wt. % DMS, 20° C.): 212525 mPa s
Viscosity of Topped Canadian Asphaltic Crude (1.43 wt. % DMS, 40° C.): 14721 mPa s
Viscosity of Topped Canadian Asphaltic Crude (1.43 wt. % DMS, 60° C.): 2209 mPa s
Viscosity of Topped Canadian Asphaltic Crude (1.43 wt. % DMS, 80° C.): 538 mPa s
Viscosity of Topped Canadian Asphaltic Crude (2.07 wt. % DMS, 20° C.): 134880 mPa s
Viscosity of Topped Canadian Asphaltic Crude (2.07 wt. % DMS, 40° C.): 10523 mPa s
Viscosity of Topped Canadian Asphaltic Crude (2.07 wt. % DMS, 60° C.): 1747 mPa s
Viscosity of Topped Canadian Asphaltic Crude (2.07 wt. % DMS, 80° C.): 427 mPa s
Viscosity of West African Waxy Crude (2.48 wt. % DMS, 20° C.): 122.3 mPa s
Viscosity of West African Waxy Crude (2.48 wt. % DMS, 20° C. after cooling from 80° C.): 89.23 mPa s
Viscosity of West African Waxy Crude (2.48 wt. % DMS, 40° C.): 30.53 mPa s
Viscosity of West African Waxy Crude (2.48 wt. % DMS, 60° C.): 13.66 mPa s
Viscosity of West African Waxy Crude (2.48 wt. % DMS, 80° C.): 8.44 mPa s
Viscosity of Middle Eastern Asphaltic Crude (2.6 wt. % DMS, 20° C.): 1026.6 mPa s
Viscosity of Middle Eastern Asphaltic Crude (2.6 wt. % DMS, 20° C. after cooling from 80° C.): 881.1 mPa s
Viscosity of Middle Eastern Asphaltic Crude (2.6 wt. % DMS, 40° C.): 219.9 mPa s
Viscosity of Middle Eastern Asphaltic Crude (2.6 wt. % DMS, 60° C.): 76.5 mPa s
Viscosity of Middle Eastern Asphaltic Crude (2.6 wt. % DMS, 80° C.): 34.3 mPa s
Viscosity of Topped Canadian Asphaltic Crude (4.87 wt. % DMS, 20° C.): 28720 mPa s
Viscosity of Topped Canadian Asphaltic Crude (4.87 wt. % DMS, 40° C.): 3235 mPa s
Viscosity of Topped Canadian Asphaltic Crude (4.87 wt. % DMS, 60° C.): 985 mPa s
Viscosity of Topped Canadian Asphaltic Crude (4.87 wt. % DMS, 80° C.): 328 mPa s
Viscosity of West African Waxy Crude (5.03 wt. % DMS, 20° C.): 78.37 mPa s
Viscosity of West African Waxy Crude (5.03 wt. % DMS, 20° C. after cooling from 80° C.): 55.21 mPa s
Viscosity of West African Waxy Crude (5.03 wt. % DMS, 40° C.): 20.24 mPa s
Viscosity of West African Waxy Crude (5.03 wt. % DMS, 60° C.): 10.45 mPa s
Viscosity of West African Waxy Crude (5.03 wt. % DMS, 80° C.): 6.55 mPa s
Viscosity of Middle Eastern Asphaltic Crude (5.3 wt. % DMS, 20° C.): 496.5 mPa s
Viscosity of Middle Eastern Asphaltic Crude (5.3 wt. % DMS, 20° C. after cooling from 80° C.): 503.5 mPa s
Viscosity of Middle Eastern Asphaltic Crude (5.3 wt. % DMS, 40° C.): 134.2 mPa s
Viscosity of Middle Eastern Asphaltic Crude (5.3 wt. % DMS, 60° C.): 52.2 mPa s
Viscosity of Middle Eastern Asphaltic Crude (5.3 wt. % DMS, 80° C.): 25.5 mPa s
Viscosity of Middle Eastern Asphaltic Crude (7.6 wt. % DMS, 20° C.): 288.0 mPa s
Viscosity of West African Waxy Crude (7.60 wt. % DMS, 20° C.): 60.92 mPa s
Viscosity of Middle Eastern Asphaltic Crude (7.6 wt. % DMS, 20° C. after cooling from 80° C.): 290.0 mPa s
Viscosity of West African Waxy Crude (7.60 wt. % DMS, 20° C. after cooling from 80° C.): 40.89 mPa s
Viscosity of Middle Eastern Asphaltic Crude (7.6 wt. % DMS, 40° C.): 89.4 mPa s
Viscosity of West African Waxy Crude (7.60 wt. % DMS, 40° C.): 17.08 mPa s
Viscosity of Middle Eastern Asphaltic Crude (7.6 wt. % DMS, 60° C.): 37.4 mPa s
Viscosity of West African Waxy Crude (7.60 wt. % DMS, 60° C.): 9.29 mPa s
Viscosity of Middle Eastern Asphaltic Crude (7.6 wt. % DMS, 80° C.): 19.3 mPa s
Viscosity of West African Waxy Crude (7.60 wt. % DMS, 80° C.): 6.09 mPa s
Viscosity of Topped Canadian Asphaltic Crude (8.01 wt. % DMS, 20° C.): 5799 mPa s
Viscosity of Topped Canadian Asphaltic Crude (8.01 wt. % DMS, 40° C.): 982 mPa s
Viscosity of Topped Canadian Asphaltic Crude (8.01 wt. % DMS, 60° C.): 275 mPa s
Viscosity of Topped Canadian Asphaltic Crude (8.01 wt. % DMS, 80° C.): 106 mPa s
Viscosity of Topped Canadian Asphaltic Crude (9.80 wt. % DMS, 20° C.): 2760 mPa s
Viscosity of Topped Canadian Asphaltic Crude (9.80 wt. % DMS, 40° C.): 571 mPa s
Viscosity of Topped Canadian Asphaltic Crude (9.80 wt. % DMS, 60° C.): 173 mPa s
Viscosity of Topped Canadian Asphaltic Crude (9.80 wt. % DMS, 80° C.): 73 mPa s
Viscosity of West African Waxy Crude (9.95 wt. % DMS, 20° C.): 44.70 mPa s
Viscosity of West African Waxy Crude (9.95 wt. % DMS, 20° C. after cooling from 80° C.): 30.61 mPa s
Viscosity of West African Waxy Crude (9.95 wt. % DMS, 40° C.): 13.03 mPa s
Viscosity of West African Waxy Crude (9.95 wt. % DMS, 60° C.): 7.58 mPa s
Viscosity of West African Waxy Crude (9.95 wt. % DMS, 80° C.): 5.04 mPa s
Viscosity of Middle Eastern Asphaltic Crude (10.1 wt. % DMS, 20° C.): 150.0 mPa s
Viscosity of Middle Eastern Asphaltic Crude (10.1 wt. % DMS, 20° C. after cooling from 80° C.): 150.5 mPa s
Viscosity of Middle Eastern Asphaltic Crude (10.1 wt. % DMS, 40° C.): 52.4 mPa s
Viscosity of Middle Eastern Asphaltic Crude (10.1 wt. % DMS, 60° C.): 24.5 mPa s
Viscosity of Middle Eastern Asphaltic Crude (10.1 wt. % DMS, 80° C.): 13.5 mPa s
Viscosity of Topped Canadian Asphaltic Crude (14.81 wt. % DMS, 5° C.): 1794 mPa s
Viscosity of Topped Canadian Asphaltic Crude (14.81 wt. % DMS, 10° C.): 1155 mPa s
Viscosity of Topped Canadian Asphaltic Crude (14.81 wt. % DMS, 20° C.): 548 mPa s
Viscosity of Topped Canadian Asphaltic Crude (14.81 wt. % DMS, 40° C.): 159 mPa s
Viscosity of Topped Canadian Asphaltic Crude (14.81 wt. % DMS, 60° C.): 64 mPa s
Viscosity of Topped Canadian Asphaltic Crude (14.81 wt. % DMS, 80° C.): 32 mPa s
Viscosity of West African Waxy Crude (15.13 wt. % DMS, 20° C.): 23.96 mPa s
Viscosity of West African Waxy Crude (15.13 wt. % DMS, 20° C. after cooling from 80° C.): 17.64 mPa s
Viscosity of West African Waxy Crude (15.13 wt. % DMS, 40° C.): 8.32 mPa s
Viscosity of West African Waxy Crude (15.13 wt. % DMS, 60° C.): 4.97 mPa s
Viscosity of West African Waxy Crude (15.13 wt. % DMS, 80° C.): 3.38 mPa s
Viscosity of Middle Eastern Asphaltic Crude (15.2 wt. % DMS, 20° C.): 59.4 mPa s
Viscosity of Middle Eastern Asphaltic Crude (15.2 wt. % DMS, 20° C. after cooling from 80° C.): 60.7 mPa s
Viscosity of Middle Eastern Asphaltic Crude (15.2 wt. % DMS, 40° C.): 25.2 mPa s
Viscosity of Middle Eastern Asphaltic Crude (15.2 wt. % DMS, 60° C.): 13.6 mPa s
Viscosity of Middle Eastern Asphaltic Crude (15.2 wt. % DMS, 80° C.): 8.2 mPa s
Viscosity of West African Waxy Crude (19.30 wt. % DMS, 20° C.): 15.26 mPa s
Viscosity of West African Waxy Crude (19.30 wt. % DMS, 20° C. after cooling from 80° C.): 12.06 mPa s
Viscosity of West African Waxy Crude (19.30 wt. % DMS, 40° C.): 6.25 mPa s
Viscosity of West African Waxy Crude (19.30 wt. % DMS, 60° C.): 4.05 mPa s
Viscosity of West African Waxy Crude (19.30 wt. % DMS, 80° C.): 2.92 mPa s
Viscosity of Topped Canadian Asphaltic Crude (19.78 wt. % DMS, 20° C.): 188 mPa s
Viscosity of Topped Canadian Asphaltic Crude (19.78 wt. % DMS, 40° C.): 69 mPa s
Viscosity of Topped Canadian Asphaltic Crude (19.78 wt. % DMS, 60° C.): 33 mPa s
Viscosity of Topped Canadian Asphaltic Crude (19.78 wt. % DMS, 80° C.): 19 mPa s
Viscosity of Middle Eastern Asphaltic Crude (20.1 wt. % DMS, 20° C.): 29.9 mPa s
Viscosity of Middle Eastern Asphaltic Crude (20.1 wt. % DMS, 20° C. after cooling from 80° C.): 31.0 mPa s
Viscosity of Middle Eastern Asphaltic Crude (20.1 wt. % DMS, 40° C.): 14.8 mPa s
Viscosity of Middle Eastern Asphaltic Crude (20.1 wt. % DMS, 60° C.): 8.7 mPa s
Viscosity of Middle Eastern Asphaltic Crude (20.1 wt. % DMS, 80° C.): 5.7 mPa s
Viscosity of Topped Canadian Asphaltic Crude (29.88 wt. % DMS, 5° C.): 113 mPa s
Viscosity of Topped Canadian Asphaltic Crude (29.88 wt. % DMS, 10° C.): 81 mPa s
Viscosity of Topped Canadian Asphaltic Crude (29.88 wt. % DMS, 20° C.): 51 mPa s
Viscosity of Topped Canadian Asphaltic Crude (29.88 wt. % DMS, 40° C.): 22 mPa s
Viscosity of Topped Canadian Asphaltic Crude (29.88 wt. % DMS, 60° C.): 13 mPa s
Viscosity of Topped Canadian Asphaltic Crude (29.88 wt. % DMS, 80° C.): 8 mPa s
Viscosity of Topped Canadian Asphaltic Crude (39.61 wt. % DMS, 5° C.): 23 mPa s
Viscosity of Topped Canadian Asphaltic Crude (39.61 wt. % DMS, 10° C.): 20 mPa s
Viscosity of Topped Canadian Asphaltic Crude (39.61 wt. % DMS, 20° C.): 14 mPa s
Viscosity of Topped Canadian Asphaltic Crude (39.61 wt. % DMS, 40° C.): 8 mPa s
Viscosity of Topped Canadian Asphaltic Crude (39.61 wt. % DMS, 60° C.): 6 mPa s
Viscosity of Topped Canadian Asphaltic Crude (39.61 wt. % DMS, 80° C.): 4 mPa s
Structure (SMILES): CSC [Dimethyl Sulfide, dimethyl sulfide]
lowering the viscosity of a crude oil, in words (all three crudes, particularly Canadian asphaltenic crude oil): effective for significantly lowering the viscosity of a crude oil
